According to paper PMC3101181, “Crystal Structures of T. b. rhodesiense Adenosine Kinase Complexed with Inhibitor and Activator: Implications for Catalysis and Hyperactivation” (PLoS Neglected Tropical Diseases, 2011):
“Also recorded” adds a separate entry of the source. Read-outs that look alike come from different tables or passages of the source.

How the values were obtained:
TbrAK [1] = target: T1, TbrAK (Trypanosoma brucei rhodesiense, UniProt Q584S0); experiment: Thermal stability assay (thermal unfolding by CD spectroscopy); type: binding; conditions: for Tm ± SD: TbrAK 13 µM, apo TbrAK 43.1±0.4, average of three experiments; for increase of TbrAK melting point when compound 1 was added: 50 µM
T1 sequence (Q584S0 entry or part of it): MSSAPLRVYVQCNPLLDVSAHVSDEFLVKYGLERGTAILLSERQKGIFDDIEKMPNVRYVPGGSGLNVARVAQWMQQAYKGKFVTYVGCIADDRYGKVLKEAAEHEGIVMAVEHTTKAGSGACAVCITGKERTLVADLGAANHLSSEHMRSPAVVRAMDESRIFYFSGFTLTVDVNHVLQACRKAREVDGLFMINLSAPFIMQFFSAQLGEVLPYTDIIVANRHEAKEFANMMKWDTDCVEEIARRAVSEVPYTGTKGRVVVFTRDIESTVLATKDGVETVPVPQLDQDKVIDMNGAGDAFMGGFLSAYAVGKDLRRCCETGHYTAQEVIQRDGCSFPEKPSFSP
Description: Thermal unfolding of TbrAK was studied by CD spectroscopy as outlined elsewhere. […] TbrAK in a buffer containing 20 mM Hepes and 150 mM NaCl (pH 7.0) was kept constant at a final concentration of 0.5 mg/ml (13 µM). […] For evaluation of the CD spectra, the buffer spectrum was subtracted from the protein CD spectrum. All thermal unfolding curves were fitted to a two-state model that had been published recently. The mean of three independent experiments is reported.

TbrAK [2] = target: T1, TbrAK; experiment: Isothermal titration calorimetry (ITC); type: binding
Description: Binding affinity constants for adenosine and ATP were determined using isothermal titration calorimetry (ITC). To this end, TbrAK was dialyzed into a buffer consisting of 20 mM Tris, 150 mM NaCl, and 5% glycerol (pH 7.5) and used at concentrations around 90 µM. The ligands were dissolved directly into the dialysis buffer to give a final concentration of around 2 mM. All solutions were filtered and thoroughly degassed before use. A typical titration experiment consisted of a first control injection of 1 µl followed by 50 to 60 injections, each of 5 µl (20 s duration), using a 4 min interval. Raw data were collected, corrected for ligand heats of dilution, integrated and fitted to the appropriate binding model using the Microcal Origin software supplied with the instrument. The measurements were performed in duplicate.

[3] = target: TbrAK (adenosine kinase of T. b. rhodesiense) (Trypanosoma brucei rhodesiense, UniProt Q584S0); experiment: TbrAK activity assay (HPLC, ADP/ATP ratio); type: biochemical; conditions: n.e. = no effect; for efficacy increase (TbrAK activation): efficacy of TbrAK in absence of compound taken as reference; for EC50 / potency EC50 (TbrAK activation): compound range 1–2000 µM, average of three experiments, neither activator nor inhibitor; for EC50: read-out: potency EC50 (TbrAK activation)
Chain of TbrAK (adenosine kinase of T. b. rhodesiense) (Q584S0 entry or part of it): as above
Description: The activation potential of a series of compound 1 derivatives (compounds 2–7) was measured using a recently developed HPLC method. The resulting ADP/ATP ratios were calculated and used as a measure of activity. For comparative reasons the activity recorded in absence of compound was set to 100%. The mean of three independent measurements is reported.

[4] = tested on: Trypanosoma brucei rhodesiense; parameters: method as in PMID 19707572, PMID 17949068; conditions: read-out: IC50 towards Trypanosoma brucei rhodesiense; cited from earlier work
[5] = parameters: method as in PMID 19707572, PMID 17949068; conditions: cited from earlier work
TbrAK [6] = target: T1, TbrAK; conditions: ITC; cited from earlier work
[7] = AP5A, adenosine, ATP at 500 µM, compound 1 at 50 µM

Nc1ncnc2c1ncn2[C@@H]1O[C@H](COP(=O)(O)OP(=O)(O)OP(=O)(O)OP(=O)(O)OP(=O)(O)OC[C@H]2O[C@@H](n3cnc4c(N)ncnc43)[C@H](O)[C@@H]2O)[C@@H](O)[C@H]1O [AP5A, P^1,P^5-di(adenosine-5′)-pentaphosphate]
Tm ± SD (TbrAK [1]; [7]): 50.5±0.2 °C | Δ Tm (TbrAK [1]; shift versus apo TbrAK (43.1°C), AP5A, adenosine, ATP at 500 µM, compound 1 at 50 µM): 7.4 °C

Nc1ncnc2c1ncn2[C@@H]1O[C@H](COP(=O)(O)OP(=O)(O)OP(=O)(O)O)[C@@H](O)[C@H]1O [ATP, adenosine triphosphate]
Tm ± SD (TbrAK [1]; [7]): 42.8±0.1 °C

Nc1ncnc2c1ncn2[C@@H]1O[C@H](CO)[C@@H](O)[C@H]1O [adenosine]
Tm ± SD (TbrAK [1]; [7]): 50.7±0.2 °C | Kd (TbrAK [2]): 1.3 ± 0.3 µM | n (molar ratio, single site) (TbrAK [2]; in presence of compound 1 (150 µM)): 0.9±0.1 | ΔHbind, single binding site (TbrAK [2]; in presence of compound 1 (150 µM), single-site binding model): -15.5 ± 0.2 kcal/mol | Kd (TbrAK [2]; read-out: KD, low affinity binding site, two-sites non-interacting binding model, mean of two experiments): 27.6 ± 1.1 µM | n1 (molar ratio, high affinity site) (TbrAK [2]; two-sites model): 0.9±0.1 | n2 (molar ratio, low affinity site) (TbrAK [2]; two-sites model): 0.8±0.1

c1ccc(Oc2ccc(-c3cc(N4CCOCC4)[nH]n3)cc2)cc1 [compound 1, 4-[5-(4-phenoxyphenyl)-2H-pyrazol-3-yl]morpholine]
efficacy increase (TbrAK activation) [3]: 3.5 fold | IC50 [4]: 1 µM | Tm ± SD (TbrAK [1]; [7]): 47.9±0.1 °C | increase of TbrAK melting point when compound 1 was added (TbrAK [1]; in presence of adenosine): 0.4 °C | increase of TbrAK melting point when compound 1 was added (TbrAK [1]; in presence of both adenosine and ATP): 0.7 °C | cytotoxicity [5]: low cytotoxicity | number of binding sites on TbrAK (TbrAK [6]): two binding sites

c1ccc(Oc2ccc(-c3cc(C4CCOCC4)[nH]n3)cc2)cc1 [compound 2, 3-(4-phenoxyphenyl)-5-(tetrahydropyran-4-yl)-1H-pyrazole]
EC50 [3]: 25.4 µM | efficacy increase (TbrAK activation) [3]: 2.0 fold

CCc1ccc(-c2cc(C3CCOCC3)[nH]n2)cc1 [compound 3, 3-(4-ethylphenyl)-5-(tetrahydropyran-4-yl)-1H-pyrazole]
EC50 [3]: 168 µM | efficacy increase (TbrAK activation) [3]: 2.5 fold

Clc1ccc(-c2cc(N3CCOCC3)[nH]n2)cc1 [compound 4, 4-[5-(4-chlorophenyl)-2H-pyrazol-3-yl]morpholine]
EC50 [3]: 135 µM | efficacy increase (TbrAK activation) [3]: 2.0 fold

c1ccc(Oc2ccc(-c3cc(CN4CCOCC4)[nH]n3)cc2)cc1 [compound 5, 4-[5-(4-phenoxyphenyl)-2H-pyrazol-3-ylmethyl]morpholine]
EC50 [3]: 195 µM | efficacy increase (TbrAK activation) [3]: 1.5 fold

c1ccc(Oc2ccc(-c3cc(N4CCOCC4)on3)cc2)cc1 [compound 6, 4-[3-(4-phenoxyphenyl)isoxazol-5-yl]morpholine]
potency EC50 (TbrAK activation) [3]: n.e. ^c | efficacy increase (TbrAK activation) [3]: loses all activation capacity; also recorded: n.e. ^c

O=[N+]([O-])c1ccc(Oc2ccc(-c3cc(N4CCOCC4)[nH]n3)cc2)cc1 [compound 7, 4-{5-[4-(4-nitrophenoxy)phenyl]-2H-pyrazol-3-yl}morpholine]
potency EC50 (TbrAK activation) [3]: n.e. | efficacy increase (TbrAK activation) [3]: loses all activation capacity; also recorded: n.e. ^c
